# Assay results reported in patent US20230031406A1, “COMPOUNDS AND COMPOSITIONS FOR TREATING CONDITIONS ASSOCIATED WITH NLRP ACTIVITY” (Novartis AG, priority 2018, published 2023).
# Test system: PMA-differentiated THP-1 cells
# Assay: IL-1β production in PMA-differentiated THP-1 cells stimulated with gramicidin (hTHP-1 assay containing 2% fetal bovine serum; Procedures 1 and 2)
# Type: cell-based, human
# Conditions: Homo sapiens, THP-1, Table B1; 2% fetal bovine serum; class symbols; read-out: Average IC50 of compounds in hTHP-1 assay: hTHP-1 IC50
# Outline: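 Human monocytic THP-1 cells, matured overnight with PMA at 20 ng/ml, are seeded in low-serum (2% FBS) RPMI. Test compounds, at final concentrations from 100 down to 0.0017 μM, precede gramicidin (5 μM, 2 h) by one hour. Released IL-1β is then determined by HTRF.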
row,SMILES,IC50 [µM]
1,"CC1(C)Cc2nc3c(c(NC(=O)N=S(N)(=O)c4cnc(C(C)(C)O)s4)c2C1)CCC3 (single isomer, unassigned) [Compound 147b, (R) or (S)-N′-((2,2-dimethyl-1,2,3,5,6,7-hexahydro-dicyclopenta[b,e]pyridin-8-yl)carbamoyl)-2-(2-hydroxypropan-2-yl)thiazole-5-sulfonimidamide]",1 to 5
2,"CC(C)(O)c1ccc(S(N)(=O)=NC(=O)Nc2c3c(nc4c2CCC4)CCC3)s1 (single isomer, unassigned) [Compound 149a, (R) or (S)-N′-((1,2,3,5,6,7-hexahydrodicyclo-penta[b,e]pyridin-8-yl)carbamoyl)-5-(2-hydroxypropan-2-yl)thiophene-2-sulfonimidamide]",0.2 to 1

# Further lines, results first:
row,IC50 [µM],SMILES
1,1 to 5,"CC(C)(O)c1nc(S(N)(=O)=NC(=O)Nc2c3c(nc4c2CCC4)CCC3)cs1 (single isomer, unassigned) [Compound 154a, (R) or (S)-N′-((1,2,3,5,6,7-hexahydrodicyclo-penta[b,e]pyridin-8-yl)carbamoyl)-2-(2-hydroxypropan-2-yl)thiazole-4-sulfonimidamide]"
2,1 to 5,"CC(C)(O)c1ccc(S(N)(=O)=NC(=O)Nc2c3c(nc4c2CCC4)CCC3)cn1 (single isomer, unassigned) [Compound 156b, (R) or (S)-N′-((1,2,3,5,6,7-hexahydrodicyclo-penta[b,e]pyridin-8-yl)carbamoyl)-6-(2-hydroxypropan-2-yl)pyridine-3-sulfonimidamide]"
3,5 to 30,"Cc1nc(C(C)(C)O)ccc1S(N)(=O)=NC(=O)Nc1c2c(nc3c1CCC3)CCC2 (single isomer, unassigned) [Compound 157b, (R) or (S)-N′-((1,2,3,5,6,7-hexahydrodicyclo-penta[b,e]pyridin-8-yl)carbamoyl)-6-(2-hydroxypropan-2-yl)-2-methylpyridine-3-sulfonimidamide]"
4,1 to 5,"Cn1nc(S(N)(=O)=NC(=O)Nc2c3c(nc4c2CCC4)CCC3)cc1C(C)(C)O (single isomer, unassigned) [Compound 158a, (R) or (S)-N′-((1,2,3,5,6,7-hexahydrodicyclo-penta[b,e]pyridin-8-yl)carbamoyl)-5-(2-hydroxypropan-2-yl)-1-methyl-1H-pyrazole-3-sulfonimidamide]"

# Same assay, conditions: Homo sapiens, THP-1, Table B1; 2% fetal bovine serum; numeric bounds; read-out: Average IC50 of compounds in hTHP-1 assay: hTHP-1 IC50
row,SMILES,IC50 [µM]
1,"Cc1c(-c2ccccc2)nc2c(c1NC(=O)N=S(N)(=O)c1cnc(C(C)(C)O)s1)CCC2 (single isomer, unassigned) [Compound 143a, (S) or (R)-2-(2-hydroxy-propan-2-yl)-N′-((3-methyl-2-phenyl-6,7-dihydro-5H-cyclopenta[b]pyridin-4-yl)carbamoyl)thiazole-5-sulfonimidamide]",> 30
2,"CC1(C)Cc2nc3c(c(NC(=O)N=S(N)(=O)c4cnc(C(C)(C)O)s4)c2C1)CCC3 (single isomer, unassigned) [Compound 147a, (S) or (R)-N′-((2,2-dimethyl-1,2,3,5,6,7-hexahydrodicyclo-penta[b,e]pyridin-8-yl)carbamoyl)-2-(2-hydroxypropan-2-yl)thiazole-5-sulfonimidamide]",> 30
3,"CC(C)(O)c1ccc(S(N)(=O)=NC(=O)Nc2c3c(nc4c2CCC4)CCC3)s1 (single isomer, unassigned) [Compound 149b, (S) or (R)-N′-((1,2,3,5,6,7-hexahydrodicyclo-penta[b,e]pyridin-8-yl)carbamoyl)-5-(2-hydroxypropan-2-yl)thiophene-2-sulfonimidamide]",> 30

# Second part, the molecule after the results:
row,IC50 [µM],SMILES
1,> 28,"CC(C)(O)c1nc(S(N)(=O)=NC(=O)Nc2c3c(nc4c2CCC4)CCC3)cs1 (single isomer, unassigned) [Compound 154b, (S) or (R)-N′-((1,2,3,5,6,7-hexahydrodicyclo-penta[b,e]pyridin-8-yl)carbamoyl)-2-(2-hydroxypropan-2-yl)thiazole-4-sulfonimidamide]"
2,> 30,"CC(C)(O)c1ccc(S(N)(=O)=NC(=O)Nc2c3c(nc4c2CCC4)CCC3)cn1 (single isomer, unassigned) [Compound 156a, (S) or (R)-N′-((1,2,3,5,6,7-hexahydrodicyclo-penta[b,e]pyridin-8-yl)carbamoyl)-6-(2-hydroxypropan-2-yl)pyridine-3-sulfonimidamide]"
3,> 30,"Cc1nc(C(C)(C)O)ccc1S(N)(=O)=NC(=O)Nc1c2c(nc3c1CCC3)CCC2 (single isomer, unassigned) [Compound 157a, (S) or (R)-N′-((1,2,3,5,6,7-hexahydrodicyclo-penta[b,e]pyridin-8-yl)carbamoyl)-6-(2-hydroxypropan-2-yl)-2-methylpyridine-3-sulfonimidamide]"
4,> 30,"Cn1nc(S(N)(=O)=NC(=O)Nc2c3c(nc4c2CCC4)CCC3)cc1C(C)(C)O (single isomer, unassigned) [Compound 158b, (S) or (R)-N′-((1,2,3,5,6,7-hexahydrodicyclo-penta[b,e]pyridin-8-yl)carbamoyl)-5-(2-hydroxypropan-2-yl)-1-methyl-1H-pyrazole-3-sulfonimidamide]"

# Same assay, conditions: Table B1; 2% fetal bovine serum; class symbols; read-out: Average IC50 of compounds in hTHP-1 assay: hTHP-1 IC50
row,SMILES,IC50 [µM]
1,"CC(C)c1c(-c2ccccc2)nc2c(c1NC(=O)N=S(N)(=O)c1cnc(C(C)(C)O)s1)CCC2 (single isomer, unassigned) [Compound 145a, (R) or (S)-2-(2-hydroxy-propan-2-yl)-N′-((3-isopropyl-2-phenyl-6,7-dihydro-5H-cyclopenta[b]pyridin-4-yl)carbamoyl)thiazole-5-sulfonimidamide]",0.2 to 1
2,"CC(C)c1c(-c2ccccc2)nc2c(c1NC(=O)N=S(N)(=O)c1cnc(C(C)(C)O)s1)CCC2 (single isomer, unassigned) [Compound 145b, (S) or (R)-2-(2-hydroxy-propan-2-yl)-N′-((3-isopropyl-2-phenyl-6,7-dihydro-5H-cyclopenta[b]pyridin-4-yl)carbamoyl)thiazole-5-sulfonimidamide]",1 to 5
3,"CC(C)c1ncc(F)c(C(C)C)c1NC(=O)N=S(N)(=O)c1cc(C(C)(C)O)cs1 (single isomer, unassigned) [Compound 148a, (R) or (S)-N′-((5-fluoro-2,4-diisopropylpyridin-3-yl)carbamoyl)-4-(2-hy-droxypropan-2-yl)thiophene-2-sulfonimidamide]",0.2 to 1
4,"CC(C)c1ncc(F)c(C(C)C)c1NC(=O)N=S(N)(=O)c1cc(C(C)(C)O)cs1 (single isomer, unassigned) [Compound 148b, (S) or (R)-N′-((5-fluoro-2,4-diisopropylpyridin-3-yl)carbamoyl)-4-(2-hydroxypropan-2-yl)thiophene-2-sulfonimidamide]",1 to 5
5,"CC(C)(O)c1nc(CO)c(S(N)(=O)=NC(=O)Nc2c3c(nc4c2CCC4)CCC3)s1 (single isomer, unassigned) [Compound 150a, (S) or (R)-N′-((1,2,3,5,6,7-hexahydrodicyclo-penta[b,e]pyridin-8-yl)carbamoyl)-4-(hydroxymethyl)-2-(2-hydroxypropan-2-yl)thiazole-5-sulfonimidamide]",5 to 30
6,"CC(C)(O)c1nc(CO)c(S(N)(=O)=NC(=O)Nc2c3c(nc4c2CCC4)CCC3)s1 (single isomer, unassigned) [Compound 150b, (R) or (S)-N′-((1,2,3,5,6,7-hexahydrodicyclo-penta[b,e]pyridin-8-yl)carbamoyl)-4-(hydroxymethyl)-2-(2-hydroxypropan-2-l)thiazole-5-sulfonimidamide]",0.2 to 1
7,"CC(C)(O)c1ncc(S(N)(=O)=NC(=O)Nc2c3c(nc4c2CCC4(C)C)CCC3)s1 (single isomer, unassigned) [Compound 153a, (S) or (R)-N′-((3,3-dimethyl-1,2,3,5,6,7-hexahydro-dicyclopenta[b,e]pyridin-8-yl)carbamoyl)-2-(2-hydroxypropan-2-yl)thiazole-5-sulfonimidamide]",5 to 30
8,"CC(C)(O)c1ncc(S(N)(=O)=NC(=O)Nc2c3c(nc4c2CCC4(C)C)CCC3)s1 (single isomer, unassigned) [Compound 153b, (R) or (S)-N′-((3,3-dimethyl-1,2,3,5,6,7-hexahydro-dicyclopenta[b,e]pyridin-8-yl)carbamoyl)-2-(2-hydroxypropan-2-yl)thiazole-5-sulfonimidamide]",0.04 to 0.2

# Further lines, results first:
row,IC50 [µM],SMILES
1,0.04 to 0.2,"CC(C)(O)c1csc(S(N)(=O)=NC(=O)Nc2c3c(nc4c2CCC4)CCC3)c1 (single isomer, unassigned) [Compound 155a, (R) or (S)-N′-((1,2,3,5,6,7-hexahydrodicyclo-penta[b,e]pyridin-8-yl)carbamoyl)-4-(2-hydroxypropan-2-yl)thiophene-2-sulfonimidamide]"
2,1 to 5,"CC(C)(O)c1csc(S(N)(=O)=NC(=O)Nc2c3c(nc4c2CCC4)CCC3)c1 (single isomer, unassigned) [Compound 155b, (S) or (R)-N′-((1,2,3,5,6,7-hexahydrodicyclo-penta[b,e]pyridin-8-yl)carbamoyl)-4-(2-hydroxypropan-2-yl)thiophene-2-sulfonimidamide]"

# Same assay, conditions: Table B1; 2% fetal bovine serum; numeric bounds; read-out: Average IC50 of compounds in hTHP-1 assay: hTHP-1 IC50
row,SMILES,IC50 [µM]
1,"CC(C)(O)c1ncc(S(N)(=O)=NC(=O)Nc2cc(-c3ccccc3)nc3c2CCC3)s1 (single isomer, unassigned) [Compound 142b, (S) or (R)-2-(2-hydroxy-propan-2-yl)-N′-((2-phenyl-6,7-dihydro-5H-cyclopenta[b]pyridin-4-yl)carbamoyl)thiazole-5-sulfonimidamide]",> 30
2,"Cc1c(-c2ccccc2)nc2c(c1NC(=O)N=S(N)(=O)c1cnc(C(C)(C)O)s1)CCC2 (single isomer, unassigned) [Compound 143b, (R) or (S)-2-(2-hydroxy-propan-2-yl)-N′-((3-methyl-2-phenyl-6,7-dihydro-5H-cyclopenta[b]pyridin-4-yl)carbamoyl)thiazole-5-sulfonimidamide]",> 30
